pIC50: −log10 of the molar value.
Assays:
[1] = test system: C57BL/6 mice; assay: Toxicity experiment, I.P. injection; assay type: in vivo; conditions: 0.4 mg/g or 0.8 mg/g body weight I.P.; 1 hour or 2 weeks
Procedure: (§1) ZCL 278 Toxicity Experiment: Individual C57BL/6 mice of 4-6 months of age from Jackson Laboratory (Bar Harbor, Maine, United States of America) were submitted to ZCL278 treatment for 5 minutes, 30 minutes, 2 hours and 24 hours. The dosage of ZCL278 for each mouse was 0.8 mg/g body weight delivered via intraperitoneal (I.P.) injection of a 15 mg/ml solution of ZCL278 was dissolved in the sesame oil (10% DMSO).
as §1, with “279” for “278”, “ZCL279” for “ZCL278”, “0.6” for “0.8”
ZCL367 Toxicity Experiment: Individual C57BL/6 mice of 4-6 months of age from Jackson Laboratory (Bar Harbor, Maine, United States of America) were submitted to ZCL367 treatment for 1 hour or 2 weeks. The dosage of ZCL367 for each time period was 0.4 mg/g body weight or 0.8 mg/g body weight, delivered via I.P. injection. […] Mice were sacrificed after end of 1 hour or 2 weeks.

[2] = test system: mice; assay: Long-term survival after one injection; assay type: in vivo
Procedure: Long-term Survival. Groups of 10 mice were treated with one injection of ZCL278 (up to 0.8 mg/g), ZCL279 (up to 0.6 mg/g), or ZCL367 (up to 1.6 mg/g) to examine potential lethal dosage (the maximal dosage tested when no mice died). […] Durations longer than 3 months have not been tested. As a reference, working dosage for the behavioral assessment described below used 20 ug/g for injection, […] than the highest dosage of 0.8 mg/g tested in the long-term survival experiment.

[3] = test system: Swiss 3T3 cells; assay: Immunofluorescence, cell morphology and bradykinin-mediated activation; assay type: cell-based
Procedure: Immunofluorescence: Serum-starved Swiss 3T3 cells were pretreated with compound for 2 h before the addition of bradykinin (100 ng/mL) for 20 min. Cells were fixed in 4% paraformaldehyde for 15 min at RT and stored in PBS. Fixed cells were treated with 0.5% Triton for 30 min at RT, 100 mM Glycine 30 min at RT, and 10% BSA for 30 min at 37° C. Primary antibody for GM130 (1:1000, BD Biosciences, Franklin Lakes, New Jersey, United States of America) was used to probe for 1 h at RT followed by CY3-conjugated secondary antibody (1:1000) for 1 h at RT in the dark. Actin was stained with fluorescein-conjugated phalloidin (1:300). Hoechst (1:2500) was used to stain the nuclei. Coverslips were mounted onto slides using antifade medium from Life Technologies (Carlsbad, California, United States of America). Images were taken with a Zeiss Axiovert S100 microscope (Carl Zeiss; Thornwood, New York, United States of America).

[4] = target: T1, RhoA (Homo sapiens, UniProt P61586); assay: Rho-GEF IC50 assay (GEF/DH domain-mediated mant-GTP binding); assay type: biochemical
T1 construct: purchased Cytoskeleton Inc
Procedure: (§2) Rho-GEF IC50 Assay: Rho-GEF assay (Cytoskeleton Inc., Denver, Colorado, United States of America) was conducted per manufacturer's instructions (λex=360 nm, λem=460 nm). Briefly, a solution (50 μL) of purified Rho GTPase (1 μM) and mant-GTP (1.5 μM) with or without compound (0.001-500 μM) was prepared and the absorbance monitored for 10-30 min to obtain the background/baseline. The addition of purified GEF/DH domain (0.08-0.2 μM) was carried out simultaneously and the absorbance was recorded for 30-45 min. The linear slope following the addition of the GEF was calculated and expressed as percentage of the control and plotted on an IC50 curve.

[5] = target: T2, Rac1 (Homo sapiens, UniProt P63000); assay: as above; assay type: biochemical
T2 construct: purchased Cytoskeleton Inc
Procedure: as §2

[6] = target: T3, Cdc42 (Homo sapiens, UniProt P60953); assay: as above; assay type: biochemical; set-up: purchased Cytoskeleton Inc; conditions: read-out: IC50, GEF/DH domain-mediated mant-GTP binding/Cdc42 activation
Procedure: as §2

[7] = target: T3, Cdc42; assay: mant-GTP binding to Cdc42 with or without GEF/DH domain; assay type: biochemical; set-up: purchased Cytoskeleton Inc; conditions: 5-500 μM
Procedure: (§3) Cdc42 (1 μM) was incubated with mant-GTP (1.5 μM) and varying concentrations of ZCL278, ZCL279, or ZCL367 (5-500 μM). Fluorescent readings were taken every minute for 10 m to acquire the baseline. The GEF/DH domain (0.08-0.2 μM) was added followed by readings taken every minute for another 30 m. The linear phase was calculated from within the time period of 12-22 m. Cdc42 (1 μM) was incubated with mant-GTP (1.5 μM) and varying concentrations of ZCL278, ZCL279, or ZCL367 (5-500 μM). Fluorescent readings were taken every minute for 30 m to monitor the binding of mant-GTP in the absence of GEF/DH domain.

[8] = Solubility profile by optical density; assay type: physicochemical; conditions: for Ratio (optical density solution/solvent alone) / optical density of solution: RT, 10 minutes
Source text: ZCL278, ZCL279, and ZCL367 were all tested for solubility in the 5 FDA approved solvents to be used in humans. […] Results are shown below in Tables 2-4. Ratio refers to the optical density of the solution comprising the modulator compound/the optical density of the carder/solvent alone.

[9] = target: T3, Cdc42; assay: Cdc42-GEF-assay, additional compound screening; assay type: biochemical; set-up: purchased Cytoskeleton Inc; conditions: percentages of ZCL367 normalized to batch; less than 100% = more potent inhibitor
Procedure: as §2, §3
Cdc42-GEF-assays were conducted on additional screening compounds in batches of 9 compounds per batch as described above in Example 2 using ZCL278 and ZCL367 as standards. Screening compounds were taken from the Specs Chemistry Database of 197,000 compounds for small molecule or the National Cancer Institute Compound Library. […] These compounds promote Cdc42-mantGTP binding without GEF. It is possible that these compounds can inhibit Cdc42-mantGTP binding with GEF. […] These compounds appear to have activity like ZCL279. […] However, upon the addition of GEF, the compounds appear to facilitate the binding of mantGTP to Cdc42 (high assay slope, relative to ZCL278)

[10] = Polyethylene Glycol300 (PEG-300), 30%

T3 sequence (P60953 whole entry, the tested form may be a part): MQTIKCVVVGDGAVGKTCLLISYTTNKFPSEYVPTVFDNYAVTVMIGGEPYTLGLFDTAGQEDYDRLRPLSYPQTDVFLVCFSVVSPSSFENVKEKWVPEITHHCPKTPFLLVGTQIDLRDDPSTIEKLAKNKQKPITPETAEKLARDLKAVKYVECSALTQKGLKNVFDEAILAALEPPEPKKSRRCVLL
T1 sequence (P61586 whole entry, the tested form may be a part): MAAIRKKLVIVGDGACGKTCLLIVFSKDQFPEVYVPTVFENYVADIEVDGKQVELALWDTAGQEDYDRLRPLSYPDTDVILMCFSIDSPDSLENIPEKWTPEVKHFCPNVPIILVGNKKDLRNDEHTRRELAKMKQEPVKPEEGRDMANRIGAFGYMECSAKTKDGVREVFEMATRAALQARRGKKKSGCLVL

With `O=C(N/N=C/c1ccccc1O)c1cc(O)cc(O)c1` [ZCL367, (E)-3,5-dihydroxy-N′-(2-hydroxybenzylidene)benzohydrazide] the “gross anatomic toxicity (liver, kidney, spleen)” value [1] was “no gross anatomic toxicity”, the “Lethal Dosage” value ([2]; mouse, in vivo) was 0.8 mg/g and the “Longest Dosing Duration” value ([2]; mouse, in vivo) was 2 months. For the same compound, the “deaths in long-term survival” value ([2]; one injection, 1.6 mg/g, in 1 month) was “one (day 20) out of four mice died”, the bradykinin-mediated activation ([3]; Swiss 3T3 cells, bradykinin 100 ng/mL) was “inhibit bradykinin-mediated activation” and the “changes to cell morphology” value ([3]; after 4 h of treatment, more drastic after six hours) was “no effects on cell morphology”. The pIC50 [4] was 4.53, the pIC50 [5] was 6.72 and the pIC50 [6] was 7.01. For the same compound, the “effect on Cdc42 (mant-GTP binding)” value ([7]; in the absence of GEF domain) was “has no effect”, the “effect on Cdc42 (mant-GTP binding)” value ([7]; in the presence of GEF domain) was “acts as an inhibitor” and the “Ratio (optical density solution/solvent alone)” value ([8]; 1,2-Propanediol, 40%) was 2.667. The “optical density of solution” value ([8]; 1,2-Propanediol, 40%) was 0.104, the “Ratio (optical density solution/solvent alone)” value ([8]; Dimethyl Sulfoxide (DMSO)) was 1.048 and the “optical density of solution” value ([8]; Dimethyl Sulfoxide (DMSO)) was 0.044. The “Ratio (optical density solution/solvent alone)” value ([8]; Pluronic F-68, 10%) was 2.026, the “optical density of solution” value ([8]; Pluronic F-68, 10%) was 0.079 and the “Ratio (optical density solution/solvent alone)” value [8, 10] was 2.333. For the same compound, the “optical density of solution” value [8, 10] was 0.091, the “Ratio (optical density solution/solvent alone)” value ([8]; Sesame Oil) was 2.636 and the “optical density of solution” value ([8]; Sesame Oil) was 0.116. For the same compound, the “Ratio (optical density solution/solvent alone)” value ([8]; Sterile Water) was 5.211, the “optical density of solution” value ([8]; Sterile Water) was 0.198 and the “Ratio (optical density solution/solvent alone)” value ([8]; Tween-80, 0.4%) was 3.579. For the same compound, the “optical density of solution” value ([8]; Tween-80, 0.4%) was 0.136, the “Ratio (optical density solution/solvent alone)” value ([8]; dPBS) was 2.974 and the “optical density of solution” value ([8]; dPBS) was 0.113. The solubility ([8]; in DM19) was “completely soluble” and the “% ZCL367 (inhibitor activity)” value [9] was 100%.

Source: patent US12285393B2, “Roles of modulators of intersectin-Cdc42 signaling in Alzheimer's disease” (priority 2017, dated 2025)
